Values of other authors, collected in patent publication US20230056788A1, “METHODS AND COMPOSITIONS FOR THE INHIBITION OF HEPATITIS B AND HEPATITIS D VIRUS INFECTIONS” (priority 2020, published 2023).
In the oligonucleotide strings, read from the 5' end, every base follows the letter of its sugar. An asterisk marks phosphorothioate; unmarked linkages are phosphodiester. Other units and linkages are bracketed, terminal groups are in braces. A string of capitals states the bases alone. [5mC] = 5-methylcytosine; m = 2'-O-methyl

What was measured:
[1] = test system: HBV
[2] = test system: HBV; conditions: HBeAg positive and negative chronic infection and HBV/HDV co-infection

Q: Which antiviral activity [1] does the source give for “(2′OMeA, 2′OMe-5-MeC)20 (mAm[5mC]mAm[5mC]mAm[5mC]mAm[5mC]mAm[5mC]mAm[5mC]mAm[5mC]mAm[5mC]mAm[5mC]mAm[5mC]mAm[5mC]mAm[5mC]mAm[5mC]mAm[5mC]mAm[5mC]mAm[5mC]mAm[5mC]mAm[5mC]mAm[5mC]mAm[5mC]; further chemistry not fully specified) [REP 2147, non phosphorothioated (phosphodiester) counterpart of REP 2139]” here?
A: The antiviral activity was “inactive”.

Q: With “(2′OMeA, 2′OMe-5-MeC)20 (mA*m[5mC]*mA*m[5mC]*mA*m[5mC]*mA*m[5mC]*mA*m[5mC]*mA*m[5mC]*mA*m[5mC]*mA*m[5mC]*mA*m[5mC]*mA*m[5mC]*mA*m[5mC]*mA*m[5mC]*mA*m[5mC]*mA*m[5mC]*mA*m[5mC]*mA*m[5mC]*mA*m[5mC]*mA*m[5mC]*mA*m[5mC]*mA*m[5mC]; further chemistry not fully specified) [REP 2139]” as the substance, how does the “activity against infections with multiple HBV genotypes” value [2] read?
A: The value was “potently active”.

Q: For “(2′OMeA, 2′OMe-5-MeC)10 (mA*m[5mC]*mA*m[5mC]*mA*m[5mC]*mA*m[5mC]*mA*m[5mC]*mA*m[5mC]*mA*m[5mC]*mA*m[5mC]*mA*m[5mC]*mA*m[5mC]; further chemistry not fully specified) [REP 2179, phosphorothioate 20mer counterpart of REP 2139]”, which antiviral activity [1] is on record?
A: The antiviral activity was “(hydrophobic, inactive”.
